Assay results from patent US20260000656A1, “ANTIFUNGAL AGENTS WITH ENHANCED ACTIVITY IN ACIDIC PH” (Scynexis, Inc., priority 2017, published 2026).
In brackets after ≈: the same amount, converted by molar mass. Like-named read-outs stand apart in the source and are kept apart here.

System: C. glabrata isolates
Assay: Broth microdilution susceptibility (CLSI M27-A3) at different medium pH
Assay type: cell-based, Candida glabrata
Conditions: Nakaseomyces glabratus, 24 h; for MIC50: read-out: MIC50; for MIC90: read-out: MIC90
Method: Ten strains each of C. glabrata and C. albicans vaginal isolates were tested. The strains were obtained from recent clinical trial patients with vulvovaginal candidiasis (VVC) prior to treatment. Candida strains were obtained from the Mycology Reference Library (MRL) at Case Western Reserve University School of Medicine, Ohio, United States.
Susceptibility testing was performed using a broth microdilution method, according to CLSI M27-A3 guidelines (CLSI. 2008. Reference Method for Broth Dilution Antifungal Susceptibility Testing of Yeasts; Approved Standard—Third Edition. Clinical and Laboratory Standards Institute, CLSI document M27-A3). Antifungals and concentrations tested were SCY-078 and micafungin (both at concentrations within the range of 0.015 to 8 μg/ml) and fluconazole (at concentrations within the range of 0.125 to 64 μg/ml). A 0.1-ml C. albicans and C. glabrata inoculum of 0.5-2.5×10^3 blastospores/ml in RPMI 1640 medium was added to each microdilution well. ATCC strains of Candida parapsilosis and Candida krusei QC isolates were also included concurrently to ensure quality control. Antifungal susceptibility testing was carried out for each isolate in RPMI 1640 at pH 7 (to mimic RPMI medium used in testing the susceptibility of yeast by the CLSI M-27A3 document), pH 5.7, and pH 4.5 (to mimic the pH of the vaginal cavity) by adjusting the pH of the media using NaOH or HCl. […] Agents Chemother., 43: 1383-1386 (1999).
[…] SCY-078 powder was manufactured by Avista, Laboratories, NC. Micafungin and fluconazole were sourced from LGM Pharma.

[1] = pH 7, 50% inhibition, pH 7.0, 24 h, 10 vaginal isolates
[2] = pH 7, 100% inhibition, pH 7.0, 24 hours, 10 isolates

MIC (pH 5.72, C. glabrata MRL 32626, pH 5.72, 24 hours, read-out: MIC (50% inhibition)): 0.5 µg/mL (≈ 0.685 µM)
MIC (pH 5.72, C. glabrata MRL 32626, pH 5.72, 24 hours, read-out: MIC (100% inhibition)): 1 µg/mL (≈ 1.37 µM)
MIC (pH 5.72, C. glabrata MRL 32993, pH 5.72, 24 hours, read-out: MIC (50% inhibition)): 0.5 µg/mL (≈ 0.685 µM)
MIC (pH 5.72, C. glabrata MRL 32993, pH 5.72, 24 hours, read-out: MIC (100% inhibition)): 1 µg/mL (≈ 1.37 µM)
MIC (pH 5.72, C. glabrata MRL 33204, pH 5.72, 24 hours, read-out: MIC (50% inhibition)): 0.5 µg/mL (≈ 0.685 µM)
MIC (pH 5.72, C. glabrata MRL 33204, pH 5.72, 24 hours, read-out: MIC (100% inhibition)): 1 µg/mL (≈ 1.37 µM)
MIC (pH 5.72, C. glabrata MRL 33960, pH 5.72, 24 hours, read-out: MIC (50% inhibition)): 0.5 µg/mL (≈ 0.685 µM)
MIC (pH 5.72, C. glabrata MRL 33960, pH 5.72, 24 hours, read-out: MIC (100% inhibition)): 1 µg/mL (≈ 1.37 µM)
MIC (pH 5.72, C. glabrata MRL 33961, pH 5.72, 24 hours, read-out: MIC (50% inhibition)): 0.5 µg/mL (≈ 0.685 µM)
MIC (pH 5.72, C. glabrata MRL 33961, pH 5.72, 24 hours, read-out: MIC (100% inhibition)): 1 µg/mL (≈ 1.37 µM)
MIC (pH 5.72, C. glabrata MRL 34339, pH 5.72, 24 hours, read-out: MIC (50% inhibition)): 0.5 µg/mL (≈ 0.685 µM)
MIC (pH 5.72, C. glabrata MRL 34339, pH 5.72, 24 hours, read-out: MIC (100% inhibition)): 1 µg/mL (≈ 1.37 µM)
MIC (pH 5.72, C. glabrata MRL 34407, pH 5.72, 24 hours, read-out: MIC (50% inhibition)): 0.5 µg/mL (≈ 0.685 µM)
MIC (pH 5.72, C. glabrata MRL 34407, pH 5.72, 24 hours, read-out: MIC (100% inhibition)): 1 µg/mL (≈ 1.37 µM)
MIC (pH 5.72, C. glabrata MRL 34576, pH 5.72, 24 hours, read-out: MIC (50% inhibition)): 0.5 µg/mL (≈ 0.685 µM)
MIC (pH 5.72, C. glabrata MRL 34576, pH 5.72, 24 hours, read-out: MIC (100% inhibition)): 1 µg/mL (≈ 1.37 µM)
MIC50 [1]: 1 µg/mL (≈ 1.37 µM)
MIC90 [1]: 1 µg/mL (≈ 1.37 µM)
MIC50 [2]: 1 µg/mL (≈ 1.37 µM)
MIC90 [2]: 2 µg/mL (≈ 2.74 µM)
MIC (pH 7, C. glabrata MRL 32075, pH 7.0, 24 hours, read-out: MIC (50% inhibition)): 0.5 µg/mL (≈ 0.685 µM)
MIC (pH 7, C. glabrata MRL 32075, pH 7.0, 24 hours, read-out: MIC (100% inhibition)): 1 µg/mL (≈ 1.37 µM)
MIC (pH 7, C. glabrata MRL 32232, pH 7.0, 24 hours, read-out: MIC (50% inhibition)): 1 µg/mL (≈ 1.37 µM)
MIC (pH 7, C. glabrata MRL 32232, pH 7.0, 24 hours, read-out: MIC (100% inhibition)): 1 µg/mL (≈ 1.37 µM)
MIC (pH 7, C. glabrata MRL 32626, pH 7.0, 24 hours, read-out: MIC (50% inhibition)): 0.5 µg/mL (≈ 0.685 µM)
MIC (pH 7, C. glabrata MRL 32626, pH 7.0, 24 hours, read-out: MIC (100% inhibition)): 1 µg/mL (≈ 1.37 µM)
MIC (pH 7, C. glabrata MRL 32993, pH 7.0, 24 hours, read-out: MIC (50% inhibition)): 0.5 µg/mL (≈ 0.685 µM)
MIC (pH 7, C. glabrata MRL 32993, pH 7.0, 24 hours, read-out: MIC (100% inhibition)): 1 µg/mL (≈ 1.37 µM)
MIC (pH 7, C. glabrata MRL 33204, pH 7.0, 24 hours, read-out: MIC (50% inhibition)): 1 µg/mL (≈ 1.37 µM)
MIC (pH 7, C. glabrata MRL 33204, pH 7.0, 24 hours, read-out: MIC (100% inhibition)): 1 µg/mL (≈ 1.37 µM)
MIC (pH 7, C. glabrata MRL 33960, pH 7.0, 24 hours, read-out: MIC (50% inhibition)): 0.5 µg/mL (≈ 0.685 µM)
MIC (pH 7, C. glabrata MRL 33960, pH 7.0, 24 hours, read-out: MIC (100% inhibition)): 1 µg/mL (≈ 1.37 µM)
MIC (pH 7, C. glabrata MRL 33961, pH 7.0, 24 hours, read-out: MIC (50% inhibition)): 1 µg/mL (≈ 1.37 µM)
MIC (pH 7, C. glabrata MRL 33961, pH 7.0, 24 hours, read-out: MIC (100% inhibition)): 1 µg/mL (≈ 1.37 µM)
MIC (pH 7, C. glabrata MRL 34339, pH 7.0, 24 hours, read-out: MIC (50% inhibition)): 1 µg/mL (≈ 1.37 µM)
MIC (pH 7, C. glabrata MRL 34339, pH 7.0, 24 hours, read-out: MIC (100% inhibition)): 1 µg/mL (≈ 1.37 µM)
MIC (pH 7, C. glabrata MRL 34407, pH 7.0, 24 hours, read-out: MIC (50% inhibition)): 1 µg/mL (≈ 1.37 µM)
MIC (pH 7, C. glabrata MRL 34407, pH 7.0, 24 hours, read-out: MIC (100% inhibition)): 2 µg/mL (≈ 2.74 µM)
MIC (pH 7, C. glabrata MRL 34576, pH 7.0, 24 hours, read-out: MIC (50% inhibition)): 1 µg/mL (≈ 1.37 µM)
MIC (pH 7, C. glabrata MRL 34576, pH 7.0, 24 hours, read-out: MIC (100% inhibition)): 2 µg/mL (≈ 2.74 µM)
Compound: CC(C)[C@@H](C)[C@@]1(C)CC[C@]2(C)[C@H]3CC[C@@H]4[C@@]5(COC[C@]4(C)[C@@H](OC[C@](C)(N)C(C)(C)C)[C@H](n4ncnc4-c4ccncc4)C5)C3=CC[C@@]2(C)[C@@H]1C(=O)O [SCY-078]
